Results: PubChem BioAssay AID1626 (SRMLSC, 2009)

Test system: M. tuberculosis H37Rv growth inhibition
Experiment: M. tuberculosis H37Rv growth inhibitors, H37Rv strain (AID 1626)
Conditions: for IC90: measured here: IC90 against H37Rv; for CC50: measured here: Vero cell cytotoxicity

Row | Structure (SMILES) | IC50 [µM] | IC90 [µM] | CC50 [µM]
1 | OC(CNCCc1ccc(C(F)(F)F)cc1)COc1cccc2ccccc12 (stereo unspecified) | 5.71 | 6.42 | 13.7
2 | Cc1cccc(N2CCN(C(=O)c3ccc4nc(N5CCCCC5)sc4c3)CC2)c1C | 7.98 | 11.2 | > 40
3 | CCOC(=O)COc1ccc(-c2nnc(-c3ccccc3)o2)cc1 | 0.409 | 3.76 | –
4 | CCOC(=O)CSc1cccc2cccnc12 | – | – | 30.7
5 | N#CC(C#N)=c1ccc2c(c1)N1C(c3ccccc3)=CC(c3ccccc3)C3CCCCC31N=2 (stereo unspecified) | 28.3 | > 100 | –
6 | Fc1ccc(C(c2ccc(F)cc2)N2CCN(C/C=C/c3ccccc3)CC2)cc1 | 7.94 | 10.1 | > 40
7 | Cc1nc2ccc(NC(=O)C(F)(F)F)cc2o1 | – | > 100 | –
8 | Cc1ccc(OCCCc2c(C)n[nH]c2C)cc1 | 16.8 | > 100 | –
9 | O=C(Nc1nccs1)c1sc2ccccc2c1Cl | 15.1 | > 100 | > 40
10 | CC(C)(C)C1CCc2c(sc(NC(=O)CSc3nnc(-c4ccccc4)o3)c2C#N)C1 (stereo unspecified) | – | > 100 | –
11 | CCCCOC(=O)Cn1c(-c2ccccc2)nc2ccccc2c1=O | 7.75 | 18.5 | –
12 | CCN1CCN(Cc2ccc(NC(=O)c3cc(NC(=O)c4cc(-c5ccc(OC)cc5)n[nH]4)cc(OC)c3)cc2C(F)(F)F)CC1 | 4.41 | 5.93 | 6.28
13 | O=C(Nc1nccs1)c1cn(-c2ccccc2)nc1-c1ccccc1 | – | > 100 | > 40
14 | CCCCCn1c(N2CCC(Cc3ccccc3)CC2)nc2c1c(=O)[nH]c(=O)n2C | 11.8 | 13.4 | 24.1
15 | CCc1cccc2c1NC(=O)C21N2CCCC2C(C(=O)c2ccc3ccccc3c2)C12C(=O)Nc1ccccc12 (stereo unspecified) | 23.8 | > 100 | > 40
16 | CCN(CC)C(=O)CSc1nnc2nnc3cc(Cl)ccc3n12 | 1.22 | 7.51 | 19.8
17 | Clc1cccc(-c2nc(NCCN3CCOCC3)c3ccccc3n2)c1 | 12.6 | 17.6 | > 40
18 | Cc1ccc(-c2nn(-c3ccccc3)cc2C=O)o1 | – | – | > 40
19 | O=C(Nc1nc2c(F)cc(F)cc2s1)c1ccccn1 | 0.34 | 1.49 | 3.89
20 | Oc1cccc(-c2nc3ccc4ccccc4c3c3c2CCC3)c1 | 16.8 | 27 | > 40
21 | O=C(/C=C/c1ccccc1)Oc1cccc2cccnc12 | 7.94 | 9.54 | 37.2

Row | Structure (SMILES) | IC50 [µM] | IC90 [µM] | CC50 [µM]
22 | CCCOC(=O)CSc1nnc(-c2cc(OC)c(OC)c(OC)c2)o1 | 0.728 | 1.83 | –
23 | CCOC(=O)c1ccc(NC(=O)C2C3CCC(C3)C2C(=O)O)cc1 (stereo unspecified) | – | > 100 | –
24 | O=C(CNC1CCCC1)Nc1ccc(N2CCCCCC2)cc1 | 8.04 | 10.2 | 37.7
25 | O=C(/C=C/c1ccc(Br)cc1)c1ccco1 | 14.5 | 21.3 | > 40
26 | CCOC(=O)C1=C(c2ccccc2)NC(N)=NC1c1ccc(OCc2ccc(Cl)cc2)c(OC)c1 (stereo unspecified) | 4.55 | 5.57 | 22.6
27 | CC(C)(C)c1ccc(OCCCC(=O)NC2=NCCS2)cc1 | 11.8 | > 100 | > 40
28 | CC(C)c1ccc(NC(=O)NC2CCCCC2)cc1 | 6.27 | > 100 | –
29 | O=C(CC(SCc1ccco1)c1ccc(O)cc1)c1cccs1 (stereo unspecified) | 27.4 | > 100 | > 40
30 | COc1ccc(N2CN=C3SCC(=O)N3C2)cc1 | 46.5 | > 100 | –
31 | COc1cc(CNCc2ccccn2)ccc1OCc1ccc(Cl)c(Cl)c1 | 5.63 | 7.7 | > 40
32 | CCOC(=O)c1ccc(NC(=O)c2nc[nH]c2C(=O)N[C@H](C)c2ccccc2)cc1 | 6.38 | 24.6 | 26
33 | Cc1ccc(N(CCC#N)C(=O)CCl)cc1C | 19.7 | 38.4 | 1.94
34 | Oc1ccccc1CNc1cnc2ccccc2c1 | 11.1 | > 100 | > 40
35 | COCCCNC(=O)COC(=O)c1ccc(-c2nc3ccccc3s2)s1 | 14.4 | 26.9 | > 40
36 | Cc1ccc(CNCc2cc3c(C(C)(C)C)nn(-c4ccccc4)c3[nH]c2=O)cc1 | 8.33 | 11 | > 40
37 | CCOC(=O)c1sc2nc(C)[nH]c(=S)c2c1C | 39.1 | > 100 | –
38 | COc1ccc(C2/C=C\CN(C(=O)Nc3ccc(C(F)(F)F)cc3)CC(=O)N2Cc2ccc(F)cc2)cc1 (stereo unspecified) | 5.74 | 6.73 | 16.7
39 | Cc1cccc(NC(=O)/C=C/c2ccc([N+](=O)[O-])s2)c1 | < 0.391 | < 0.391 | 6.99
40 | O=C(CCl)Oc1ccc2occ(C(=O)c3cccs3)c2c1 | – | > 100 | –
41 | CCn1c(CNc2ccccc2Cl)nnc1SCC(=O)OC1CCCCC1 | 1.63 | 3.2 | –
42 | Cc1ccc(-c2cc(C(=O)Nc3nccs3)c3ccccc3n2)c(C)c1 | 9.6 | 11.9 | > 40

Row | Structure (SMILES) | IC50 [µM] | IC90 [µM] | CC50 [µM]
43 | CN=C(Nc1cc(Cl)ccc1Cl)SC1CC(=O)N(c2ccc(C(=O)OC)cc2)C1=O (stereo unspecified) | 24.9 | > 100 | > 40
44 | c1ccc(OCc2nn3c(-c4n[nH]c5c4CCC5)nnc3s2)cc1 | 1.23 | 6.8 | –
45 | O=C(CSc1nc(-c2ccccc2Cl)ns1)c1ccc(Cl)cc1 | 8.62 | > 100 | –
46 | CCCOc1ccc(-c2nc(C#N)c(NCCCn3ccnc3)o2)cc1 | 15 | > 100 | > 40
47 | Cc1ccc(-c2nn(-c3ccccc3)cc2NC(=O)CCl)cc1 | 29.6 | > 100 | 27.1
48 | O=[N+]([O-])c1cc(/C=N/N/C(=N/c2ccccn2)c2ccccn2)ccc1O | 17.9 | > 100 | 26.8
49 | CC(=O)/C=C/c1ccc2ccccc2n1 | 5.65 | 6.34 | 16.1
50 | O=C(O)c1cn(-c2ccc(N3CCCC3)c(F)c2)c2c(F)c(F)c(F)cc2c1=O | 4.59 | 9.57 | > 40
51 | Nc1cnn(Cc2ccc(F)cc2)c1 | – | > 100 | –
52 | O=C(Nc1ccc(N2CCN(C(=O)c3ccco3)CC2)cc1)C(c1ccccc1)c1ccccc1 | 12 | 14.1 | > 40
53 | CN(C)c1ccc(N=Nc2nc3ccccc3n2C)cc1 | 0.939 | 2.73 | > 40
54 | COc1ccc(-c2nc(CN3CCCCC3c3nccn3C)c(C)o2)c(C)c1C (stereo unspecified) | 18.1 | 40.9 | 22
55 | CCOc1ccc(NCc2ccccc2OCc2cccc(F)c2)cc1 | 8.84 | > 100 | –
56 | Cc1ccc(-c2noc(CCC(=O)NCCCN3CCN(c4cccc(Cl)c4)CC3)n2)cc1 | 9.9 | 13.2 | > 40
57 | O=C(COC(=O)c1ccccc1Br)Nc1ccccc1F | – | > 100 | –
58 | Cn1c2c(c(=O)n(C)c1=O)C(C(F)(F)F)(C(F)(F)F)N=C(c1ccc(Cl)cc1)N2 | 4.92 | 6.68 | 2.61
59 | Cc1c(C(=O)N2CCCCC2)sc(NC(=O)C23CC4CC(CC(C4)C2)C3)c1C#N | 40.8 | > 100 | –
60 | Cc1cccc(-n2c(/C=C/c3ccc([N+](=O)[O-])o3)nc3ccccc3c2=O)c1 | – | > 100 | 28.7
61 | CCCCCCCn1c(NC(=O)CC)nc2ccccc21 | < 0.195 | 1.58 | 29.2
62 | Cc1sc(-n2c(C)cc(/C=N/n3cnnc3)c2C)c(C#N)c1C | – | – | > 40
63 | Cc1c(CN2CCC(CO)(CCOc3ccccc3)CC2)[nH]c2ccc(Cl)cc12 | 4.57 | 5.33 | 15.6

Row | Structure (SMILES) | IC50 [µM] | IC90 [µM] | CC50 [µM]
64 | COc1ccc(C(CCNCc2ccc(F)cc2)c2ccc(F)cc2)cc1 (stereo unspecified) | 5.7 | 6.62 | 23.2
65 | O=C1c2cccc3c([N+](=O)[O-])ccc(c23)C(=O)N1CC1CCCO1 (stereo unspecified) | 3.76 | 12.5 | 18.1
66 | O=C(Nc1cccc2ccccc12)c1ccc([N+](=O)[O-])s1 | 51.4 | > 100 | –
67 | Cc1nn(Cc2ccccc2Cl)c2sc(C(=O)NCc3ccc4c(c3)OCO4)cc12 | 5.45 | 7.16 | –
68 | NC1=NC[C@H](Cc2ccc(O)cc2)N1CCC12CC3CC(CC(C3)C1)C2 | 5.85 | 9.05 | –
69 | CC(=O)Nc1nc(NC(=O)/C=C/c2ccccc2)n(-c2ccccc2)n1 | 3.63 | 8.76 | 27.7
70 | COC(=O)c1ccc(NC(=O)CSC2=NCCN2)cc1 | – | > 100 | –
71 | CCOC(=O)c1ccc(COC(=O)c2ccc(-c3nnc(-c4ccccc4)o3)cc2)o1 | 23.4 | > 100 | > 40
72 | Cc1cccc(C)c1N1CCN(c2ccc3nnc(C(F)(F)F)n3n2)CC1 | 11.8 | 61.8 | > 40
73 | O=C(Nc1ccc(-c2csc(Nc3cccc(C(F)(F)F)c3)n2)cc1)c1cccc(C(F)(F)F)c1 | 0.954 | 1.53 | 17.6
74 | COC(=O)C1C(O)C(C)C(O)C(C)(O)/C=C\C=C(/C)C(=O)Nc2c(C)c(OC(C)=O)c3c(c2O)C(=O)C(C)=C2OCOC(=C23)/C(C)=C/C(C)(O)C(O)C(C)C1O (stereo unspecified) | 0.32 | 0.878 | –
75 | Clc1ccc(CNc2nc(CN3CCOCC3)nc3scc(-c4ccccc4)c23)cc1 | 22 | 25 | > 40
76 | O=C(Nc1nnc(C2=COCCO2)o1)c1ccc(Cl)cc1 | 2.71 | 4.41 | > 40
77 | O=C(CSc1nc2cc(Cl)ccc2o1)NCCc1ccccc1 | < 0.391 | 1.09 | –
78 | CCCOC(=O)c1ccc(NC(=O)C(=O)NCC2CCCO2)cc1 (stereo unspecified) | 38.7 | > 100 | –
79 | COCCCN=C1NN=C(c2cc(C)n(Cc3ccccc3Cl)c2C)CS1 | 11.3 | 12.1 | 16.3
80 | Cc1ccc2c(c1)c1c3n2CCN=C3CCC1 | 7.43 | 15.8 | –
81 | Cc1nn(-c2ccccc2)c(Cl)c1CN(C(=O)CCl)c1ccc(Cl)cc1 | 13.5 | 31.3 | 1.82
